pEC50, pIC50: −log10 of the molar value.
How the values were obtained:
Format in all cases: cell-based
PC3 cells = test: Cell Proliferation Assay, PC3; settings: Homo sapiens, PC-3; PC3, BME media lacking nonessential amino acids, 72 hours, ATPlite; read-out: Percent viability (EC50), Average
Method: Cells were seeded at 5000 cells per well (in 96-well plate) in BME media lacking nonessential amino acids+5% dialyzed serum. After 18 hours, DMSO or compound in 0.1% final concentration DMSO was added.
Percent viability (EC50) of A549 and PC3 cells was tested against certain exemplary compounds according to the above general procedures.

[1] = system: lung carcinoma cell lines; test: Viability against a subset of lung carcinoma cell lines; settings: certain of 6 cell lines, media lacking serine, FIG. 4C; read-out: IC50, inhibition of cell proliferation
Method: (§1) Viability effect of Example 1 against a subset of lung carcinoma cell lines was determined as follows. Cells were seeded at 1500 cells per well in 384-well plates in BME media, and compound was added in 0.1% DMSO 18 hours later. Viability was determined by ATPlite assay after 72 hours. (See FIG. 4C).

22RV1 = test: Cell line sensitivity (viability, ATPlite); settings: Homo sapiens; 22RV1, Prostate; BME media, 72 hours; read-out: Sensitivity to Example 1 (IC50)
Method: as §1
(§2) Example 1 was tested against an expanded panel of cell lines according to the above procedure.

Capan1 = test: Cell line sensitivity (viability, ATPlite); settings: Homo sapiens, CAPAN-1; Capan1, Pancreatic; BME media, 72 hours; read-out: Sensitivity to Example 1 (IC50)
Method: as §1, §2

MDA-MB468 = test: Cell line sensitivity (viability, ATPlite); settings: Homo sapiens, MDA-MB-468; MDA-MB468, Breast; BME media, 72 hours; read-out: Sensitivity to Example 1 (IC50)
Method: as §1, §2

NCI-H647 = test: Cell line sensitivity (viability, ATPlite); settings: Homo sapiens; NCI-H647, Lung; BME media, 72 hours; read-out: Sensitivity to Example 1 (IC50)
Method: as §1, §2

PL45 = test: Cell line sensitivity (viability, ATPlite); settings: PL45, Pancreatic; BME media, 72 hours; read-out: Sensitivity to Example 1 (IC50)
Method: as §1, §2

FaDu = test: Cell line sensitivity (viability, ATPlite); settings: Homo sapiens, Head/Neck, BME media, 72 hours, read-out: Sensitivity to Example 1 (IC50)
Method: as §1, §2

A498 = test: Cell line sensitivity (viability, ATPlite); settings: Homo sapiens; A498, Kidney; BME media, 72 hours; read-out: Sensitivity to Example 1 (IC50)
Method: as §1, §2

A172 = test: Cell line sensitivity (viability, ATPlite); settings: Homo sapiens, A 172; A172, Brain; BME media, 72 hours; read-out: Sensitivity to Example 1 (IC50)
Method: as §1, §2

PSN-1 = test: Cell line sensitivity (viability, ATPlite); settings: Homo sapiens, PSN1; PSN-1, Pancreatic; BME media, 72 hours; read-out: Sensitivity to Example 1 (IC50)
Method: as §1, §2

Hs766T = test: Cell line sensitivity (viability, ATPlite); settings: Pancreatic, BME media, 72 hours, read-out: Sensitivity to Example 1 (IC50)
Method: as §1, §2

HepG2 = test: Cell line sensitivity (viability, ATPlite); settings: Homo sapiens; HepG2, Liver; BME media, 72 hours; read-out: Sensitivity to Example 1 (IC50)
Method: as §1, §2

SW480 = test: Cell line sensitivity (viability, ATPlite); settings: Homo sapiens; SW480, Colon; BME media, 72 hours; read-out: Sensitivity to Example 1 (IC50)
Method: as §1, §2

PC3 = test: Cell line sensitivity (viability, ATPlite); settings: Homo sapiens, PC-3; PC3, Prostate; BME media, 72 hours; read-out: Sensitivity to Example 1 (IC50)
Method: as §1, §2

MiaPaCa2 = test: Cell line sensitivity (viability, ATPlite); settings: Homo sapiens, MIA PaCa-2; MiaPaCa2, Pancreatic; BME media, 72 hours; read-out: Sensitivity to Example 1 (IC50)
Method: as §1, §2

A549 = test: Cell line sensitivity (viability, ATPlite); settings: Homo sapiens; A549, Lung; BME media, 72 hours; read-out: Sensitivity to Example 1 (IC50)
Method: as §1, §2

HCT15 = test: Cell line sensitivity (viability, ATPlite); settings: Homo sapiens, HCT-15; HCT15, Colon; BME media, 72 hours; read-out: Sensitivity to Example 1 (IC50)
Method: as §1, §2

786-O = test: Cell line sensitivity (viability, ATPlite); settings: Homo sapiens, 786-0, Kidney, BME media, 72 hours, read-out: Sensitivity to Example 1 (IC50)
Method: as §1, §2

Malme3M = test: Cell line sensitivity (viability, ATPlite); settings: Homo sapiens, Malme-3M, Melanoma, BME media, 72 hours, read-out: Sensitivity to Example 1 (IC50)
Method: as §1, §2

MDA-MB453 = test: Cell line sensitivity (viability, ATPlite); settings: Homo sapiens, MDA-MB-453; MDA-MB453, Breast; BME media, 72 hours; read-out: Sensitivity to Example 1 (IC50)
Method: as §1, §2

UMUC-3 = test: Cell line sensitivity (viability, ATPlite); settings: Homo sapiens, UMUC3; UMUC-3, Bladder; BME media, 72 hours; read-out: Sensitivity to Example 1 (IC50)
Method: as §1, §2

Gist882 = test: Cell line sensitivity (viability, ATPlite); settings: Homo sapiens; Gist882, GIST; BME media, 72 hours; read-out: Sensitivity to Example 1 (IC50)
Method: as §1, §2

RKO = test: Cell line sensitivity (viability, ATPlite); settings: Homo sapiens, Colon, BME media, 72 hours, read-out: Sensitivity to Example 1 (IC50)
Method: as §1, §2

Detroit562 = test: Cell line sensitivity (viability, ATPlite); settings: Homo sapiens, Detroit 562; Detroit562, Head/Neck; BME media, 72 hours; read-out: Sensitivity to Example 1 (IC50)
Method: as §1, §2

ACHN = test: Cell line sensitivity (viability, ATPlite); settings: Homo sapiens, Kidney, BME media, 72 hours, read-out: Sensitivity to Example 1 (IC50)
Method: as §1, §2

NCI-H1975 = test: Cell line sensitivity (viability, ATPlite); settings: Homo sapiens; NCI-H1975, Lung; BME media, 72 hours; read-out: Sensitivity to Example 1 (IC50)
Method: as §1, §2

With `O=C(c1cc(C(F)(F)F)n[nH]1)N(Cc1ccc(O)cc1F)CC1CCC1` [Example 1, N-(cyclobutylmethyl)-N-(2-fluoro-4-hydroxybenzyl)-3-(trifluoromethyl)-1H-pyrazole-5-carboxamide] the pEC50 (PC3 cells) was 6.81, the pIC50 [1] was no more than 7.00 and the pIC50 (22RV1) was less than 4.52. It also gave a pIC50 (Capan1) of less than 4.52, a pIC50 (MDA-MB468) of less than 4.52 and a pIC50 (NCI-H647) of less than 4.52. The pIC50 (PL45) was less than 4.52, the pIC50 (FaDu) was less than 4.52 and the pIC50 (A498) was less than 4.52. For the same molecule, the pIC50 (A172) was 5.64, the pIC50 (PSN-1) was less than 4.52 and the pIC50 (Hs766T) was 6.52. It also gave a pIC50 (HepG2) of less than 4.52, a pIC50 (SW480) of 7.00 and a pIC50 (PC3) of 7.00. It also gave a pIC50 (MiaPaCa2) of 6.70, a pIC50 (A549) of 7.00 and a pIC50 (HCT15) of less than 4.52. The pIC50 (786-O) was less than 4.52, the pIC50 (Malme3M) was less than 4.52 and the pIC50 (MDA-MB453) was less than 4.52. For the same molecule, the pIC50 (UMUC-3) was less than 4.52, the pIC50 (Gist882) was 6.10 and the pIC50 (RKO) was less than 4.52. The pIC50 (Detroit562) was 5.52, the pIC50 (ACHN) was 7.00 and the pIC50 (NCI-H1975) was 7.05.

Source: patent US10766865B2, “PKM2 modulators and methods for their use” (TOLERO PHARMACEUTICALS, INC., priority 2012, dated 2020)
